Test results reported in ChEMBL document CHEMBL4190390, “Rational Design of Novel 1,3-Oxazine Based β-Secretase (BACE1) Inhibitors: Incorporation of a Double Bond To Reduce P-gp Efflux Leading to Robust Aβ Reduction in the Brain” (J Med Chem, 2018).

Columns and labels:
[1] = Drug degradation of the compound at 40 degC/89 % relative humidity; assay type: physicochemical; settings: read-out: Drug degradation
[2] = Dissociation constant, pKa of the compound by capillary electrophoresis method; assay type: physicochemical

Row | degraded [1] [%] | pKa [2] | SMILES
1 | 0.06 | – | C[C@@]1(c2cc(NC(=O)c3ccc(C#N)cn3)ccc2F)C=C(CF)OC(N)=N1
2 | – | 9.8 | C[C@@]1(c2ccccc2F)CCOC(N)=N1
